# Measured values from patent US20130084272A1, “COMPOSITIONS, KITS AND METHODS FOR NUTRITIONAL SUPPLEMENTATION WITH TWELVE CARBON CHAIN FATTY ACIDS AND TWELVE CARBON CHAIN ACYLGLYCEROLS” (priority 2011, published 2013).
# Read-outs that look alike come from different tables or passages of the source.
# Tests used:
# [1] = in vivo
# Protocol: Fourteen lactating women drink two test formulas, each containing a different fat: menhaden oil, and coconut oil. The subjects collect a midfeeding milk sample before consuming the breakfast test formula and additional samples at 6, 10, 14, and 24 h and then once daily for 4-7 d. Fatty acids of special interest included eicosapentaenoic and docosahexaenoic acids from menhaden oil, and lauric acid from coconut oil.
# [2] = for Lauric acid content of milk: lactating women, baseline 3.9%
# Description: Fifty women will partake in the study. Lactating women aged 19-43 y participate in the study during the first 6 months of lactation. The women remain in the study for about 10 weeks including a 2-wk washout period between consumption of the test fatty acids. The diets of the subjects remain constant during the study. […] Subjects consume the coconut oil composition once in 2-wk intervals. A 40 g coconut oil composition is consumed in the morning by each patient in place of breakfast. Subjects collect milk samples once in the morning before consuming the test formula; once at each of the following time points after consuming the formula: 6, 10, 14, and 24 h; and once daily for 4-7 days.
# [3] = Francois et al. 1998; cited from earlier work
# bacteria = conditions: Batovska et al. 2009; cited from earlier work
SMILES,Time remaining significantly elevated in milk ([1]; human) [days],Time of maximum increase in human milk [1] [h],Time to significant increase in human milk after consumption of the test formula [1] [h],"Milk content of lauric acid over time ([2]; ingestion of formula containing 40 g coconut oil, P<0.001)",Lauric acid content of milk ([2]; 10 h after consuming 40 g coconut oil composition),Lauric acid content of milk ([2]; 14 hr after consuming 40 g coconut oil composition),Time to significant increase in human milk after consumption by the lactating mother [3] [h],Antibacterial activity among medium chain fatty acids and their monoacylglycerols (bacteria)
CC/C=C\C/C=C\C/C=C\C/C=C\C/C=C\C/C=C\CCC(=O)O [docosahexaenoic acid],2,24,≤ 6,,,,,
CC/C=C\C/C=C\C/C=C\C/C=C\C/C=C\CCCC(=O)O [eicosapentaenoic acid],,14,≤ 6,,,,,
CCCCCCCCCCCC(=O)O [lauric acid],,14,≤ 6,increases,9.2 % of fatty acids,9.6 % of fatty acids,≤ 6,
"CCCCCCCCCCCC(=O)OCC(O)CO (stereo not drawn) [monolaurin, glycerol monolaurate]",,,,,,,,most active
